From US20220213030A1, “AMINOGUANIDINE HYDRAZONES AS RETROMER STABILIZERS USEFUL FOR TREATING NEUROLOGICAL DISEASES” (OSPEDALE SAN RAFFAELE SRL, priority 2019, published 2022)
Entries after “also recorded” stand apart in the source; their conditions may differ.

What was measured:
VPS35 = VPS35 (Mus musculus, UniProt Q9EQH3+Q9QZ88); assay: VPS35 levels in Neuro2a cells by Western blot (screening of amino guanidine hydrazones); type: cell-based; parameters: endogenous in cells; host or cells: Neuro2a; settings: 48 hours; for Mean fold changes (VPS35 levels normalized on β-Actin, over vehicle-treated cells): 10 μM, independent cultures n=3; for VPS35 levels (in words): compounds at 10 μM
Method: To functionally screen the majority of synthetized amino guanidine hydrazones of the invention and determine their effects on the retromer complex, we incubated Neuro2a cells with each synthetized molecule at the concentration of 10 μM.
The test was executed in triplicate for each tested compound of the invention, cells lysates were established after 48 hours' incubation, and levels of VPS35 were normalized on the housekeeping gene β-Actin by Western blot. We observed a preliminary SAR among the compounds.
Fold changes are calculated over normalized VPS35 levels measured in vehicle-treated cells.
Neuro2a cells were seeded on 12 wells multiwell at the concentration of 100 000 cells/well. Cells were incubated with each compound, including the standard R55, at 10 μM for 48 hours. Cells were then washed in PBS 1× and lysed in a buffer containing Tris-HCl 10 mM pH8, EDTA 1 mM pH8, NaCl 100 mM, NP40 1%, with protease inhibitor cocktail (Sigma) 1×. Using a cell scraper total lysates were collected from each well, quantified with BCA (BCA protein assay, Thermofisher). Five μg were resolved on precast 10% acrylamide gel (Biorad). Proteins were transferred to a PVDF membrane (Millipore) and western blot were performed using the following antibodies: goat αVPS35 (1:1000), mouse α-βActin (1:10000). Detection of proteins was obtained by a chemiluminescence detection kit (PerkinElmer).

LC3 = assay: pHfluorin-LC3 autophagy assay in Neuro2a clone 7B11; type: cell-based, mouse; settings: BafilomycinA1 200 nM, Torin-1 250 nM, 48 hours
Method: Besides increasing the functionality of lysosomes we hypothesised that compound 2a could also enhance the autophagy system. Therefore we used a pHfluorin-LC3-based assay to monitor the autophagy process in living Neuro2a cells. We have established in our laboratory a Neuro2a stable cell clone (7B11) that expresses the Microtubule-associated protein 1A/1B-light chain 3 (LC3) coupled with the ph-sensitive GFP/phlourin.
Neuro2a-7B11 cells were incubated with increasing concentrations of compound 2a (0.1-100 μM) as well as with the control molecules Bafilomycin Al and Torin-1. After 48 hours the GFP/phluorin signal, which is ph-sensitive, was measured by flow cytometry and fold changes calculated over untreated cells.
Autophagy assay were done using a stable Neuro2a cell clone expressing the pHluorin-mKate2-tagged human LC3 plasmids, Cell clones were generated according our published methods (Mazzocchi 2016). Upon transfection, cells were selected by 400 μg/mL G418 Disulfate Salt Solution (Sigma-Aldrich, St. Louis, Mo.) and further cloned by limiting dilution. […] Neuro2a 7B11 cells were treated with Compound 2a (0.1-100 μM) for 48 hours then MFI levels of the pHfluorin were measured in living cells by flow cytometry.

[1] = system: Neuro2a cells receiving H2O2; assay: H2O2-induced cell death in Neuro2a cells; type: cell-based, mouse; settings: compound 10 μM, H2O2 200 μM, 48 hours
Method: We tested the specificity of compound 2a in an assay based on H2O2-induced chromosomal breaks that lead to DNA fragmentation and cell death. In principle such DNA lesions are the cause of cell death according to a process that is not influenced by the retromer. Thus, our leads should not be able to modulate rates cell survival in Neuro2a cells receiving H2O2. We incubated Neuro2a cells with 200 μM of H2O2 along with compounds 2a, 2c, 2d and 2g (10 μM).
Cell survival experiments were run on 96-well plates using Cell Counting Kit-8 (CCK8) survival kit (96992-Sigma) according the manufacturer's recommendations. Compound 2a cytotoxicity was tested on Neuro2a cells receiving increasing amount of compound 2a (1, 10, 50, 100, 200, 500 and 1000 μM) for 48 hours.

TNFα = assay: LPS-mediated TNFα release in Raw 264.7 cells (ELISA); type: cell-based, murine; settings: 10 μM for 1 hour, then LPS 100 ng/ml, 4 hours
Text: We observed that the molecular structure featuring compound 2a is reminiscent of the patented compound CNI-1493 (N,N′-bis [3,5 -bis [1(aminoiminomethyl) hydrazono]ethyl]phenyl]decanediamide tetrahydrochloride (CAS Reg. No. 164301-51-3)), (FIG. 16A). CNI-1493 inhibits macrophage activation in the animal model of Multiple Sclerosis producing a general amelioration of clinical and pathological outcomes of these mice (Martiney, Rajan et al. 1998). […] CNI-1493 suppresses the production of pro-inflammatory cytokines, belonging to the plethora of detrimental signals that accompany neurodegenerative processes in several disorders. […] We followed experimental procedures published by Bianchi and colleagues that describe the ability of CNI-1493 to blunt the production of this cytokine (Bianchi, Bloom et al. 1996). Cells were incubated with CNI-1493 (10 μM) or with compound 2a (10 μM) for 1 hour and then we added the LPS (100 ng/ml) to media. We next collected supernatants (4 hours after the LPS stimulation) form cells for the evaluation of TNFα levels.
Raw 264.7 cells (10^5/well) were treated with compound 2a, CNI-1493 or vehicle for 1 hour then we applied LPS (100 ng/ml) and supernatants were collected after 4 hours. […] Concentrations of TNFα were calculated according to a standard curve and expressed as nanograms per […]. […]

[2] = system: TNFα, IL-1(3, IL-6 and macrophage inflammatory proteins 1α and 1β); settings: cited from earlier work
G93A mice = settings: mouse, in vivo; cited from earlier work

| SMILES | Mean fold changes (VPS35 levels normalized on β-Actin, over vehicle-treated cells) (VPS35) | further results |
| --- | --- | --- |
| C(=NNc1nc2ccccc2[nH]1)c1cccc(C=NNc2nc3ccccc3[nH]2)c1 [Compound 2z, 1,3-Bis-(N2N3-benzimidazolidinyl) guanidine phenyl hydrazone] | 1.105 | – |
| CCC(=O)N1CCN(c2ccc(-n3c(=O)ccc4cnc5ccc(-c6cnc7ccccc7c6)cc5c43)cc2C(F)(F)F)CC1 [Torin 1, reference compound] | – | GFP/phluorin fluorescence, control molecules (LC3): significantly dampened |
| CO/C1=C\C(C)=C\[C@@H](C)[C@@H](O)[C@@H](C)C/C(C)=C/C=C/[C@H](OC)[C@@H]([C@@H](C)[C@@H](O)[C@H](C)[C@@]2(O)C[C@@H](O)[C@H](C)[C@@H](C(C)C)O2)OC1=O [Bafilomycin A1, reference compound] | – | GFP/phluorin fluorescence, control molecules (LC3): augmented fluorescence |
| Cc1cc(C=NNC(=N)N)cc(C=NNC(=N)N)c1 [Compound 2g, 5-Methyl-1,3-bis-aminoguanidine phenyl hydrazone] | 2.080 | cell survival with H2O2 with or without compound [1]: did not result in any significant difference |
| C/C(=N\N=C(N)N)c1cc(NC(=O)CCCCCCCCC(=O)Nc2cc(/C(C)=N/N=C(N)N)cc(/C(C)=N/N=C(N)N)c2)cc(/C(C)=N/N=C(N)N)c1.Cl.Cl.Cl.Cl [CNI-1493, reference compound] | – | TNFα levels in supernatants (TNFα): significantly inhibited the expression of this cytokine; also recorded: significantly blunted TNFα expression; expression of pro-inflammatory cytokines [2]: inhibits the expression; onset of the disease and lifespan (G93A mice): delayed the onset of the disease and increased the lifespan of mice; VPS35 levels (in words) (VPS35): did not increased; VPS35 levels (in words) (VPS35; listed as CNI-1494): does not modulate VPS35 |
| CCCCOc1ccc(C=NNC(=N)N)cc1C=NNC(=N)N [Compound 2f, 1-(n-Butoxy)-2,4-bis-aminoguanidine phenyl hydrazone] | 1.415 | – |
| N=C(N)NN=Cc1ccc(Br)c(C=NNC(=N)N)c1 [Compound 2c, 4-Bromo-1,3-bis-amino guanidine phenyl hydrazone] | 1.617 | cell survival with H2O2 with or without compound [1]: did not result in any significant difference |
| N=C(N)NN=Cc1ccc(O)c(C=NNC(=N)N)c1 [Compound 2d, 1-Hydroxy-2,4-bis-aminoguanidine phenyl hydrazone] | 2.477 | cell survival with H2O2 with or without compound [1]: did not result in any significant difference |
| N=C(NN=Cc1cccc(C=NNC(=N)N2CCCC2)c1)N1CCCC1 [Compound 2v, 1,3-bis-(N3-pyrrolidinyl) guanidine phenyl hydrazone] | 1.978 | – |

Second part, led by results:

| Mean fold changes (VPS35 levels normalized on β-Actin, over vehicle-treated cells) (VPS35) | SMILES | further results |
| --- | --- | --- |
| 1.280 | CS(=O)(=O)Nc1cc(C=NNC(=N)N)cc(C=NNC(=N)N)c1 [Compound 2n, 1-Methylsulfonamido-3,5-bis-aminoguanidine phenyl hydrazone] | – |
| 0.625 | CCCCNC(=N)NN=Cc1cc(C=NNC(=N)NCCCC)cc(NC(=O)c2ccc(C)cc2)c1 [Compound 2w, 1-p-Tolylamido-3,5-bis-(N3-n-butylamino) guanidine phenyl hydrazone] | – |
| 1.501 | Cc1ccc(S(=O)(=O)Nc2cc(C=NNC(=N)N)cc(C=NNC(=N)N)c2)cc1 [Compound 2o, 1-p-Tolylsulfonamido-3,5-bis-aminoguanidine phenyl hydrazone] | – |
| 1.660 | CC(=O)Nc1cc(C=NNC(=N)N)cc(C=NNC(=N)N)c1 [Compound 2l, 1-Acetamido-3,5-bis-aminoguanidine phenyl hydrazone] | – |
| 1.300 | N=C(N)NN=Cc1cccc(C=NNC(=N)N)c1Br [Compound 2b, 2-Bromo-1,3-bis-aminoguanidine phenyl hydrazone] | – |
| 1.784 | N=C(N)NN=Cc1cc(C=NNC(=N)N)cc(C(=O)N2CCN(c3ccccc3)CC2)c1 [Compound 2q, 5-(N4-phenylpiperazinyl)carboxamido-3,5-bis-amino guanidine phenyl hydrazone] | – |
| 0.600 | C/C(=N\NC(=N)N)c1cccc(/C(C)=N/NC(=N)N)c1 [Compound (VIII), 1′,3′-Dimethyl-1,3-bis-aminoguanidine phenyl hydrazone, reference compound] | – |
| 1.582 | COC(=O)c1cc(C=NNC(=N)N)cc(C=NNC(=N)N)c1 [Compound 2p, 1-Carbomethoxy-3,5-bis-amino guanidine phenyl hydrazone] | – |
| 2.070 | COc1ccc(C=NNC(=N)N)cc1C=NNC(=N)N [Compound 2e, 1-Methoxy-2,4-bis-amino guanidine phenyl hydrazone] | – |
| 1.310 | COc1cc(C=NNC(=N)N)cc(C=NNC(=N)N)c1 [Compound 2i, 1-Methoxy-3,5-bis-aminoguanidine phenyl hydrazone] | – |
| 0.974 | Cc1ccc(C(=O)Nc2cc(C=NNC(=N)N)cc(C=NNC(=N)N)c2)cc1 [Compound 2m, 1-p-Tolylamido-3,5-bis-aminoguanidine phenyl hydrazone] | – |
| 1.154 | N=C(N)NN=Cc1cc(C=NNC(=N)N)cc(C=NNC(=N)N)c1 [Compound 2r, 1-3,5-tris-amino guanidine phenyl hydrazone] | – |
